Source: patent US9334276B2, “Forms and salts of a dihydropyrrolo[1,2c]imidazolyl aldosterone synthase or aromatase inhibitor” (Novartis AG, priority 2012, dated 2016)
Where two headings read alike, the source gives them in different places.

Columns and labels:
[1] = Hygroscopicity: sorption/desorption isotherms, VTI 100 humidity microbalance; assay type: physicochemical; settings: for Moisture gain (water uptake): 25° C.
Procedure: Sorption/desorption isotherms were measured using the VTI 100 humidity microbalance (VTI Corporation, Hialeah, Fla., USA). Measurements were carried out at 25° C. Samples were dried under N2 flow at 25° C.

[2] = Determination of solubility (excess solids equilibrated over 24 hours at 25° C.); assay type: physicochemical; settings: thermodynamic from solid
Procedure: Excess solids were equilibrated in each solvent for over 24 hours at 25° C.±0.1. Concentration in supernatant was measured by gravimetry for organic solvents and by HPLC from aqueous solvents and propylene glycol.

Structure (SMILES)	Moisture gain (water uptake) ([1]; 0% r.h.)	Moisture gain (water uptake) ([1]; 5% r.h., listed as Phosphate)	Moisture gain (water uptake) ([1]; 5% r.h., listed as phosphate salt)	Moisture gain (water uptake) ([1]; 25% r.h.)	Moisture gain (water uptake) ([1]; 50% r.h.)	Moisture gain (water uptake) ([1]; 75% r.h., listed as Phosphate)	Moisture gain (water uptake) ([1]; 75% r.h., listed as phosphate salt)	Moisture gain (water uptake) ([1]; 85% r.h.)	Moisture gain (water uptake) ([1]; 95% r.h.)	solubility ([2]; organic solvent or mixture, Ethyl Acetate, read-out: Solubility profile)	solubility ([2]; simulated gastric fluid, pH 1, read-out: Solubility profile)	Moisture gain (water uptake) ([1]; 5% r.h.)	Moisture gain (water uptake) ([1]; 75% r.h.)	Hygroscopicity (in words) ([1]; in contrast to the phosphate and nitrate salts)	Moisture gain (water uptake) ([1]; 5% r.h., listed as Nitrate)
N#Cc1ccc([C@H]2CCc3cncn32)c(F)c1.O=P(O)(O)O [Phosphate salt, Phosphate salt of 4-(R)-(6,7-dihydro-5H-pyrrolo[1,2-c]imidazol-5-yl)-3-fluoro-benzonitrile (Form A)]	0.0%	0.0%	0%	0.1%	0.1%	0.2%	0.9%	0.3%	0.8%	–	–	–	–	–	–
N#Cc1ccc([C@H]2CCc3cncn32)c(F)c1 [Free base, 4-(R)-(6,7-Dihydro-5H-pyrrolo[1,2-c]imidazol-5-yl)-3-fluoro-benzonitrile]	0.0%	–	–	0.1%	0.2%	–	–	0.5%	1.0%	> 50 mg/mL	> 50 mg/mL	0.0%	0.3%	–	–
Cl.N#Cc1ccc([C@H]2CCc3cncn32)c(F)c1 [HCl salt, HCl salt of 4-(R)-(6,7-dihydro-5H-pyrrolo[1,2-c]imidazol-5-yl)-3-fluoro-benzonitrile, reference compound]	0.0%	–	–	0.5%	0.2%	–	–	3.3%	23.6%	–	–	0.0%	0.2%	excessive hygroscopicity	–
N#Cc1ccc([C@H]2CCc3cncn32)c(F)c1.O=[N+]([O-])O [nitrate salt, Nitrate salt of 4-(R)-(6,7-dihydro-5H-pyrrolo[1,2-c]imidazol-5-yl)-3-fluoro-benzonitrile]	0.0%	–	–	0.1%	0.2%	–	–	0.2%	0.2%	–	–	0%	0.2%	–	0.0%
